Publication PMC7214099 (Cell reports, 2020)

Test system: IAV PA 1–192 aa endonuclease
Type: binding

O=C1c2c(O)c(=O)ccn2N([C@@H]2c3ccccc3SCc3c2ccc(F)c3F)[C@@H]2COCCN12 [BXA, Baloxavir acid]
increase in thermostability of IAV endonuclease: 28.1 °C
